Laboratory results reported in article PMC9516332 (Frontiers in Oncology, 2022).
Read-outs that look alike come from different tables or passages of the source.

Key:
[1] = molecular target: panel of 255 wild-type kinases (Homo sapiens, UniProt Q16654); settings: cited from earlier work
[2] = molecular target: panel of 255 wild-type kinases (Homo sapiens, UniProt Q9H422); settings: cited from earlier work
[3] = molecular target: panel of 255 wild-type kinases (Homo sapiens, UniProt P49840); settings: cited from earlier work
[4] = molecular target: panel of 255 wild-type kinases (Homo sapiens, UniProt Q8N4C8); settings: cited from earlier work
[5] = molecular target: panel of 255 wild-type kinases (Homo sapiens, UniProt Q04759); settings: cited from earlier work
[6] = molecular target: panel of 255 wild-type kinases (Homo sapiens, UniProt P51812); settings: cited from earlier work
[7] = molecular target: panel of 255 wild-type kinases (Homo sapiens, UniProt P04629); settings: cited from earlier work
[8] = molecular target: panel of 255 wild-type kinases (Homo sapiens, UniProt P08631); settings: cited from earlier work
[9] = molecular target: panel of 255 wild-type kinases (Homo sapiens, UniProt P22694); settings: cited from earlier work
[10] = molecular target: panel of 255 wild-type kinases (Homo sapiens, UniProt Q00534); settings: cited from earlier work
[11] = molecular target: panel of 255 wild-type kinases (Homo sapiens, UniProt P00519); settings: cited from earlier work
[12] = molecular target: panel of 255 wild-type kinases (Homo sapiens, UniProt Q16539); settings: cited from earlier work
EGFR-mutant cell lines = assay: Cell viability assay, EGFR-mutant versus EGFR wild-type cell lines; format: cell-based
FGFR-altered cell lines = assay: Cell viability assay, FGFR-altered versus FGFR wild-type cell lines; format: cell-based; settings: for IC50: read-out: average IC50 in the eight FGFR-altered cell lines; for higher potency in FGFR-altered compared to FGFR wild-type cell lines: on average, MANOVA
[13] = kinase PDHK4, 1 µmol/L single concentration, ref DOI: 10.1371/journal.pone.0092146
[14] = kinase HIPK3, 1 µmol/L single concentration, ref DOI: 10.1371/journal.pone.0092146
[15] = kinase GSK3α, 1 µmol/L single concentration, ref DOI: 10.1371/journal.pone.0092146
[16] = MINK, 1 µmol/L single concentration, ref DOI: 10.1371/journal.pone.0092146
[17] = kinase PKCθ, 1 µmol/L single concentration, ref DOI: 10.1371/journal.pone.0092146
[18] = kinase RSK2, 1 µmol/L single concentration, ref DOI: 10.1371/journal.pone.0092146
[19] = kinase TRKA, 1 µmol/L single concentration, ref DOI: 10.1371/journal.pone.0092146
[20] = kinase HCK, 1 µmol/L single concentration, ref DOI: 10.1371/journal.pone.0092146
[21] = kinase PKACβ, 1 µmol/L single concentration, ref DOI: 10.1371/journal.pone.0092146
[22] = CDK6/CycD3 kinase assay, 1 µmol/L single concentration, ref DOI: 10.1371/journal.pone.0092146
[23] = ABL kinase assay, 1 µmol/L single concentration, ref DOI: 10.1371/journal.pone.0092146
[24] = p38α, 1 µmol/L single concentration, ref DOI: 10.1371/journal.pone.0092146
[25] = kinase PDHK4, 1 µmol/L single concentration, ref DOI: 10.1158/1535-7163.MCT-18-0877
[26] = kinase HIPK3, 1 µmol/L single concentration, ref DOI: 10.1158/1535-7163.MCT-18-0877
[27] = kinase GSK3α, 1 µmol/L single concentration, ref DOI: 10.1158/1535-7163.MCT-18-0877
[28] = MINK, 1 µmol/L single concentration, ref DOI: 10.1158/1535-7163.MCT-18-0877
[29] = kinase PKCθ, 1 µmol/L single concentration, ref DOI: 10.1158/1535-7163.MCT-18-0877
[30] = kinase RSK2, 1 µmol/L single concentration, ref DOI: 10.1158/1535-7163.MCT-18-0877
[31] = kinase HCK, 1 µmol/L single concentration, ref DOI: 10.1158/1535-7163.MCT-18-0877
[32] = kinase PKACβ, 1 µmol/L single concentration, ref DOI: 10.1158/1535-7163.MCT-18-0877
[33] = CDK6/CycD3 kinase assay, 1 µmol/L single concentration, ref DOI: 10.1158/1535-7163.MCT-18-0877
[34] = ABL kinase assay, 1 µmol/L single concentration, ref DOI: 10.1158/1535-7163.MCT-18-0877
[35] = p38α, 1 µmol/L single concentration, ref DOI: 10.1158/1535-7163.MCT-18-0877
[36] = kinase TRKA, 1 µmol/L single concentration, ref DOI: 10.1158/1535-7163.MCT-18-0877

CC(=O)Nc1cccc(-n2c(=O)n(C3CC3)c(=O)c3c(Nc4ccc(I)cc4F)n(C)c(=O)c(C)c32)c1 [trametinib]
%-inhibition at 1 µmol/L, PDHK4 [1, 13]: -1.65% | %-inhibition at 1 µmol/L, HIPK3 [2, 14]: 0.0849% | %-inhibition at 1 µmol/L, GSK3α [3, 15]: 1.59% | %-inhibition, MINK [4, 16]: -1.8% | %-inhibition at 1 µmol/L, PKCθ [5, 17]: 0.388% | %-inhibition at 1 µmol/L, RSK2 [6, 18]: -1.76% | %-inhibition at 1 µmol/L, TRKA [7, 19]: -1.17% | %-inhibition at 1 µmol/L, HCK [8, 20]: -2.84% | %-inhibition at 1 µmol/L, PKACβ [9, 21]: -5% | %-inhibition CDK6/CycD3 [10, 22]: -4.23% | %-inhibition ABL [11, 23]: -8% | %-inhibition, p38α [12, 24]: -4%

Cc1cc(Nc2ncc(Cl)c(Nc3ccccc3S(=O)(=O)C(C)C)n2)c(OC(C)C)cc1C1CCNCC1 [ceritinib]
%-inhibition at 1 µmol/L, PDHK4 [1, 25]: 2.55% | %-inhibition at 1 µmol/L, HIPK3 [2, 26]: 7.48% | %-inhibition at 1 µmol/L, GSK3α [3, 27]: 15% | %-inhibition, MINK [4, 28]: 1.46% | %-inhibition at 1 µmol/L, PKCθ [5, 29]: -0.708% | %-inhibition at 1 µmol/L, RSK2 [6, 30]: 83% | %-inhibition at 1 µmol/L, HCK [8, 31]: 15% | %-inhibition at 1 µmol/L, PKACβ [9, 32]: -11% | %-inhibition CDK6/CycD3 [10, 33]: 3.4% | %-inhibition ABL [11, 34]: -1.61% | %-inhibition, p38α [12, 35]: 1.8%

C[C@@H](Oc1cc(-c2cnn(C3CCNCC3)c2)cnc1N)c1c(Cl)ccc(F)c1Cl [crizotinib]
%-inhibition at 1 µmol/L, PDHK4 [1, 13]: -3.76% | %-inhibition at 1 µmol/L, HIPK3 [2, 14]: -6% | %-inhibition at 1 µmol/L, GSK3α [3, 15]: -2.56% | %-inhibition, MINK [4, 16]: 0% | %-inhibition at 1 µmol/L, PKCθ [5, 17]: -3% | %-inhibition at 1 µmol/L, RSK2 [6, 18]: 0.217% | %-inhibition at 1 µmol/L, TRKA [7, 19]: 103% | %-inhibition at 1 µmol/L, HCK [8, 20]: 26% | %-inhibition at 1 µmol/L, PKACβ [9, 21]: -2.3% | %-inhibition CDK6/CycD3 [10, 22]: 0.0624% | %-inhibition, p38α [12, 24]: -2.27%

COc1cc2ncnc(Nc3ccc(F)c(Cl)c3)c2cc1NC(=O)/C=C/CN1CCCCC1 [dacomitinib]
lower IC50 (higher potency) in EGFR-mutant compared to EGFR wild-type cell lines (EGFR-mutant cell lines; on average, MANOVA): about 110 fold

CCN1CCN(c2ccc(Nc3cc(N(C)C(=O)Nc4c(Cl)c(OC)cc(OC)c4Cl)ncn3)cc2)CC1 [infigratinib]
potency in FGFR-altered cell lines compared to erdafitinib and pemigatinib (FGFR-altered cell lines; average IC50): more than three-fold lower potency | IC50 (FGFR-altered cell lines; geometric average): 20 nM | higher potency in FGFR-altered compared to FGFR wild-type cell lines (FGFR-altered cell lines): 130 fold

C=CC(=O)Nc1cc(Nc2nccc(-c3cn(C)c4ccccc34)n2)c(OC)cc1N(C)CCN(C)C [osimertinib]
%-inhibition at 1 µmol/L, PDHK4 [1, 25]: 0.264% | %-inhibition at 1 µmol/L, HIPK3 [2, 26]: 20% | %-inhibition at 1 µmol/L, GSK3α [3, 27]: 15% | %-inhibition, MINK [4, 28]: 21% | %-inhibition at 1 µmol/L, PKCθ [5, 29]: 10% | %-inhibition at 1 µmol/L, RSK2 [6, 30]: 42% | %-inhibition at 1 µmol/L, TRKA [7, 36]: 27% | %-inhibition at 1 µmol/L, HCK [8, 31]: 0.0489% | %-inhibition at 1 µmol/L, PKACβ [9, 32]: -6% | %-inhibition CDK6/CycD3 [10, 33]: 0.62% | %-inhibition ABL [11, 34]: 4.62% | %-inhibition, p38α [12, 35]: -6% | lower IC50 (higher potency) in EGFR-mutant compared to EGFR wild-type cell lines (EGFR-mutant cell lines): 33 fold

CCCS(=O)(=O)Nc1ccc(F)c(C(=O)c2c[nH]c3ncc(-c4ccc(Cl)cc4)cc23)c1F [vemurafenib]
%-inhibition at 1 µmol/L, PDHK4 [1, 13]: -1.4% | %-inhibition at 1 µmol/L, HIPK3 [2, 14]: -6% | %-inhibition at 1 µmol/L, GSK3α [3, 15]: 25% | %-inhibition, MINK [4, 16]: 10% | %-inhibition at 1 µmol/L, PKCθ [5, 17]: -3% | %-inhibition at 1 µmol/L, RSK2 [6, 18]: -2.31% | %-inhibition at 1 µmol/L, TRKA [7, 19]: 16% | %-inhibition at 1 µmol/L, HCK [8, 20]: 30% | %-inhibition at 1 µmol/L, PKACβ [9, 21]: 2.66% | %-inhibition CDK6/CycD3 [10, 22]: 2.43% | %-inhibition ABL [11, 23]: 15% | %-inhibition, p38α [12, 24]: 10%

CC(C)(C)c1nc(-c2cccc(NS(=O)(=O)c3c(F)cccc3F)c2F)c(-c2ccnc(N)n2)s1 [dabrafenib]
%-inhibition at 1 µmol/L, PDHK4 [1, 13]: -1% | %-inhibition at 1 µmol/L, HIPK3 [2, 14]: 65% | %-inhibition, MINK [4, 16]: -0.772% | %-inhibition at 1 µmol/L, HCK [8, 20]: 57%

CO[C@@H]1[C@H](N(C)C(=O)c2ccccc2)C[C@H]2O[C@]1(C)n1c3ccccc3c3c4c(c5c6ccccc6n2c5c31)C(=O)NC4 [midostaurin]
%-inhibition at 1 µmol/L, PDHK4 [1, 25]: 1.09% | %-inhibition at 1 µmol/L, GSK3α [3]: 87% | %-inhibition, MINK [4, 28]: 88% | %-inhibition at 1 µmol/L, RSK2 [6, 30]: 99% | %-inhibition at 1 µmol/L, TRKA [7, 36]: 100% | %-inhibition at 1 µmol/L, PKACβ [9, 32]: 91% | %-inhibition CDK6/CycD3 [10, 33]: 1.81% | %-inhibition ABL [11, 34]: 9% | %-inhibition, p38α [12, 35]: -1.38%

CCN1C(=O)N(c2c(F)c(OC)cc(OC)c2F)Cc2cnc3[nH]c(CN4CCOCC4)cc3c21 [pemigatinib]
higher potency in FGFR-altered compared to FGFR wild-type cell lines (FGFR-altered cell lines): over 500 fold | IC50 (FGFR-altered cell lines): 4.3 nM

CCc1cc2c(cc1N1CCC(N3CCOCC3)CC1)C(C)(C)c1[nH]c3cc(C#N)ccc3c1C2=O [alectinib]
%-inhibition at 1 µmol/L, PDHK4 [1, 25]: 1.7% | %-inhibition at 1 µmol/L, HIPK3 [2, 26]: 3.19% | %-inhibition at 1 µmol/L, GSK3α [3, 27]: 4.36% | %-inhibition at 1 µmol/L, PKCθ [5, 29]: -2% | %-inhibition at 1 µmol/L, RSK2 [6, 30]: 14% | %-inhibition at 1 µmol/L, TRKA [7, 36]: 62% | %-inhibition at 1 µmol/L, HCK [8, 31]: 43% | %-inhibition at 1 µmol/L, PKACβ [9, 32]: 2% | %-inhibition CDK6/CycD3 [10, 33]: -0.448% | %-inhibition ABL [11, 34]: 5% | %-inhibition, p38α [12, 35]: -0.471%

COc1cc(N2CCC(N3CCN(C)CC3)CC2)ccc1Nc1ncc(Cl)c(Nc2ccccc2P(C)(C)=O)n1 [brigatinib]
%-inhibition at 1 µmol/L, PDHK4 [1]: 5% | %-inhibition at 1 µmol/L, HIPK3 [2]: 7% | %-inhibition at 1 µmol/L, GSK3α [3]: 4% | %-inhibition, MINK [4]: 6% | %-inhibition at 1 µmol/L, PKCθ [5]: 29% | %-inhibition at 1 µmol/L, RSK2 [6]: 97% | %-inhibition at 1 µmol/L, TRKA [7]: 83% | %-inhibition at 1 µmol/L, HCK [8]: 78% | %-inhibition at 1 µmol/L, PKACβ [9]: 9% | %-inhibition CDK6/CycD3 [10]: 18% | %-inhibition ABL [11]: 54% | %-inhibition, p38α [12]: -0.837%
